ChEMBL document CHEMBL1201862, “PubChem BioAssay data set” (2004)
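Method: 48-hour compound exposure of cells in 96-well plates, five concentrations, linear interpolation of endpoints. GI50 is the concentration that inhibits growth by half.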 The source made the active and inactive calls. Cut-off read from the data, not from the text of the source: active = GI50 up to about 1.1 µM and inactive = higher.

Columns and labels:
Assay in all cases: inhibition of tumour cell growth, NCI panel, 48 h
CCRF-CEM = test system: CCRF-CEM
HOP-62 = test system: HOP-62
HT-29 = test system: HT-29
K562 = test system: K562
NCI-H23 = test system: NCI-H23
NCI-H460 = test system: NCI-H460
NCI-H522 = test system: NCI-H522
OVCAR-3 = test system: OVCAR-3
RPMI-8226 = test system: RPMI-8226
SF-268 = test system: SF-268
SF-295 = test system: SF-295
SK-MEL-28 = test system: SK-MEL-28
SK-MEL-2 = test system: SK-MEL-2
SK-MEL-5 = test system: SK-MEL-5
SN12C = test system: SN12C
SNB-75 = test system: SNB-75
SW-620 = test system: SW-620
UACC-257 = test system: UACC-257
IGROV-1 = test system: IGROV-1
SNB-19 = test system: SNB-19

SMILES	GI50 (CCRF-CEM)	GI50 (HOP-62)	GI50 (HT-29)	GI50 (K562)	GI50 (NCI-H23)	GI50 (NCI-H460)	GI50 (NCI-H522)	GI50 (OVCAR-3)	GI50 (RPMI-8226)	GI50 (SF-268)	GI50 (SF-295)	GI50 (SK-MEL-28)	GI50 (SK-MEL-2)	GI50 (SK-MEL-5)	GI50 (SN12C)	GI50 (SNB-75)	GI50 (SW-620)	GI50 (UACC-257)	GI50 (IGROV-1)	GI50 (SNB-19)
O=C1CN2C(Cl)(Cl)C2(c2ccccc2)c2cc(Cl)ccc2N1CC1CC1 (configuration not stated)	27.2 µM (inactive)	23.4 µM (inactive)	17.3 µM (inactive)	31.5 µM (inactive)	25.2 µM (inactive)	16.3 µM (inactive)	17.2 µM (inactive)	19.6 µM (inactive)	37.2 µM (inactive)	29.3 µM (inactive)	9.46 µM (inactive)	17.3 µM (inactive)	17.3 µM (inactive)	20.2 µM (inactive)	20.8 µM (inactive)	25.2 µM (inactive)	29.6 µM (inactive)	18.9 µM (inactive)	–	–
O=c1ccc2cc3ccc4cccc5ccc(c2o1)c3c45	> 100 µM (inactive)	–	22.2 µM (inactive)	> 100 µM (inactive)	67.8 µM (inactive)	13.1 µM (inactive)	25.9 µM (inactive)	> 10 µM (inactive)	> 100 µM (inactive)	28.8 µM (inactive)	33 µM (inactive)	> 100 µM (inactive)	> 100 µM (inactive)	40.4 µM (inactive)	25 µM (inactive)	24.7 µM (inactive)	31.8 µM (inactive)	–	> 100 µM (inactive)	37.3 µM (inactive)
Cc1ccc(NC(=S)NNC(=O)c2cc(-c3ccccc3)nc3ccccc23)cc1C	27.5 µM (inactive)	22 µM (inactive)	23.7 µM (inactive)	33 µM (inactive)	19.3 µM (inactive)	19.5 µM (inactive)	22.5 µM (inactive)	–	24.3 µM (inactive)	29.4 µM (inactive)	12.9 µM (inactive)	25.8 µM (inactive)	18.6 µM (inactive)	18 µM (inactive)	17.6 µM (inactive)	16.3 µM (inactive)	31.5 µM (inactive)	26.4 µM (inactive)	20 µM (inactive)	32 µM (inactive)
CCn1c(=O)nc2n(-c3ccccc3)c3ccccc3nc-2c1=O	21.1 µM (inactive)	31.7 µM (inactive)	–	17.9 µM (inactive)	25.4 µM (inactive)	13.3 µM (inactive)	26.9 µM (inactive)	3.96 µM (inactive)	21.8 µM (inactive)	17.3 µM (inactive)	24.2 µM (inactive)	32.8 µM (inactive)	25 µM (inactive)	10.4 µM (inactive)	20.6 µM (inactive)	82.8 µM (inactive)	14.4 µM (inactive)	16.7 µM (inactive)	22.4 µM (inactive)	23 µM (inactive)
Cn1ncc2cc3c(Nc4ccc(Cl)cc4)cccc3nc21	15.1 µM (inactive)	15 µM (inactive)	–	20 µM (inactive)	22.2 µM (inactive)	8.61 µM (inactive)	1.75 µM (inactive)	12.7 µM (inactive)	10.9 µM (inactive)	15.8 µM (inactive)	14.2 µM (inactive)	15.1 µM (inactive)	22.6 µM (inactive)	13.1 µM (inactive)	18.1 µM (inactive)	19.4 µM (inactive)	13.9 µM (inactive)	18.9 µM (inactive)	15.3 µM (inactive)	37.8 µM (inactive)
C/C(=C1\N=C(c2ccccc2)OC1=O)c1ccccc1	> 100 µM (inactive)	> 100 µM (inactive)	> 100 µM (inactive)	> 100 µM (inactive)	> 100 µM (inactive)	> 100 µM (inactive)	> 100 µM (inactive)	> 100 µM (inactive)	> 100 µM (inactive)	> 100 µM (inactive)	> 100 µM (inactive)	> 100 µM (inactive)	> 100 µM (inactive)	> 100 µM (inactive)	–	0.611 µM (active)	> 100 µM (inactive)	> 100 µM (inactive)	> 100 µM (inactive)	> 100 µM (inactive)
NC1CCCCC1	260 µM (inactive)	223 µM (inactive)	199 µM (inactive)	138 µM (inactive)	> 562 µM (inactive)	216 µM (inactive)	344 µM (inactive)	190 µM (inactive)	369 µM (inactive)	508 µM (inactive)	–	318 µM (inactive)	169 µM (inactive)	283 µM (inactive)	> 562 µM (inactive)	264 µM (inactive)	419 µM (inactive)	> 562 µM (inactive)	317 µM (inactive)	187 µM (inactive)
CO[C@H]1C=C[C@@]23c4cc5c(cc4CO[C@]2(O)CN(C)[C@H]3C1)OCO5	> 100 µM (inactive)	–	> 100 µM (inactive)	> 100 µM (inactive)	> 100 µM (inactive)	> 100 µM (inactive)	> 100 µM (inactive)	> 100 µM (inactive)	> 100 µM (inactive)	> 100 µM (inactive)	> 100 µM (inactive)	> 100 µM (inactive)	> 100 µM (inactive)	> 100 µM (inactive)	> 100 µM (inactive)	> 100 µM (inactive)	> 100 µM (inactive)	> 100 µM (inactive)	> 100 µM (inactive)	> 100 µM (inactive)
C=CC(=O)NC(O)(C(=O)OCC)C(F)(F)F (configuration not stated)	> 100 µM (inactive)	> 100 µM (inactive)	> 100 µM (inactive)	> 100 µM (inactive)	> 100 µM (inactive)	–	> 100 µM (inactive)	> 100 µM (inactive)	> 100 µM (inactive)	> 100 µM (inactive)	> 100 µM (inactive)	> 100 µM (inactive)	> 100 µM (inactive)	> 100 µM (inactive)	> 100 µM (inactive)	> 100 µM (inactive)	> 100 µM (inactive)	> 100 µM (inactive)	> 100 µM (inactive)	> 100 µM (inactive)
CC1[C@@H]2CC=C3C4CCC5Cc6nc7c(nc6C[C@@]5(C)C4CC(=O)[C@]32CO[C@@]1(O)C(O)CC(C)(C)O)CC1CCC2C3=C[C@H]4O[C@@]5(O[C@@](C)(CO)C[C@@H]5O)C(C)[C@@]4(O)[C@]3(C)[C@@H](O)CC2[C@]1(C)C7 (some centres not stated)	0.000753 µM (active)	0.000495 µM (active)	0.00459 µM (active)	0.0112 µM (active)	0.00308 µM (active)	0.00151 µM (active)	0.0455 µM (active)	0.491 µM (active)	< 0.00036 µM (active)	0.00676 µM (active)	< 0.00036 µM (active)	–	0.00775 µM (active)	0.0102 µM (active)	0.274 µM (active)	< 0.00036 µM (active)	0.00933 µM (active)	0.0491 µM (active)	0.0101 µM (active)	0.0366 µM (active)
C=C1C(=O)C23C(O)CC4C(C)(C)CCC(O)C4(C)C2CC(OC(C)=O)C1[C@H]3O (some centres not stated)	0.442 µM (active)	14.7 µM (inactive)	0.351 µM (active)	1.84 µM (inactive)	2.44 µM (inactive)	4.25 µM (inactive)	0.123 µM (active)	6.18 µM (inactive)	0.869 µM (active)	4.49 µM (inactive)	8.05 µM (inactive)	3.39 µM (inactive)	2.55 µM (inactive)	–	3.15 µM (inactive)	8.61 µM (inactive)	1.01 µM (active)	3.28 µM (inactive)	4.79 µM (inactive)	8.99 µM (inactive)
